Numbers after ± are expanded uncertainties.
Assays:
[1] = 101.3 kPa, Liquid
[2] = xn = mol fraction of the nth substance listed; details: 101.3 kPa, Liquid, x2 = 0

mass density ([1]; 288.15 K) | mass density ([1]; 293.15 K) | mass density ([1]; 298.15 K) | mass density ([1]; 303.15 K) | mass density ([1]; 308.15 K) | mass density ([1]; 313.15 K) | mass density ([1]; 318.15 K) | mass density ([1]; 323.15 K) | mass density ([2]; 288.15 K) | mass density ([2]; 293.15 K) | mass density ([2]; 298.15 K) | mass density ([2]; 303.15 K) | mass density ([2]; 308.15 K) | mass density ([2]; 313.15 K) | mass density ([2]; 318.15 K) | mass density ([2]; 323.15 K) | Structure (SMILES)
810.689 ± 0.55 kg/m3 | 806.646 ± 0.56 kg/m3 | 802.528 ± 0.56 kg/m3 | 798.326 ± 0.57 kg/m3 | 794.03 ± 0.57 kg/m3 | 789.632 ± 0.58 kg/m3 | 785.117 ± 0.58 kg/m3 | 780.515 ± 0.59 kg/m3 | – | – | – | – | – | – | – | – | CCC(C)O (centres undefined) [butan-2-ol]
687.954 ± 0.64 kg/m3 | 683.733 ± 0.64 kg/m3 | 679.494 ± 0.65 kg/m3 | 675.229 ± 0.66 kg/m3 | 670.941 ± 0.66 kg/m3 | 666.621 ± 0.67 kg/m3 | 662.273 ± 0.68 kg/m3 | 657.896 ± 0.68 kg/m3 | – | – | – | – | – | – | – | – | CCCCCCC [heptane]
– | – | – | – | – | – | – | – | 687.954 ± 0.64 kg/m3 | 683.733 ± 0.64 kg/m3 | 679.494 ± 0.65 kg/m3 | 675.229 ± 0.66 kg/m3 | 670.941 ± 0.66 kg/m3 | 666.621 ± 0.67 kg/m3 | 662.273 ± 0.68 kg/m3 | 657.896 ± 0.68 kg/m3 | CCCCCCC [heptane] + CCC(C)O

Source: the NIST ThermoML archive (doi:10.1021/je900715y)
